Reference: US20080118494A1, “Compositions For Detection Of Latent Hiv Reactivation And Methods Of Using The Same” (priority 2004, published 2008)

Legend:
[1] = test system: latent HIV-1 infection in human thymocytes derived from SCID-hu (Thy/liv) mice; assay: Ex vivo reactivation of latent HIV-1 in thymocytes from infected SCID-hu (Thy/Liv) mice, EYFP flow cytometry; format: cell-based; conditions: for EYFP+ cells: 24 h after depletion of EYFP+ cells, untreated 50; for induction of latent HIV-1 expression in thymocytes: range among tissue samples of four animals
Method: SCID-hu (Thy/liv) mice were infected with HIV-1 NLENY1-IRES, and thymocytes were isolated 2-4 weeks following infection. Cells were cultured for two days in the presence of AZT and indinavir to stop de novo infection and then subjected to fluorescence activated cell sorting to remove all EYFP^+ cells. Immediately following cell separation, the cells were seeded at a concentration of 1×10^6 cell/ml, cultured in supplemented RPMI 1640 to determine levels of spontaneous reactivation, stimulated with PMA, TNF-α, activating anti-CD28 antibody (clone 5D10) and the […] sodium butyrate (NaBu; two animals only). Levels of reactivation achieved in HIV-1 infected thymocytes derived from 4 different SCID-hu (Thy/liv) mice following ex vivo reactivation with the indicated stimulators are depicted as fold induction of […].
Isolation of thymocytes from SCID-hu (Thy/Liv) mice. Thy/Liv implants from the infected mice were harvested 2-4 weeks post infection and single cell suspensions generated by dissociation of the tissue. Thymocytes were isolated by Ficoll-Paque density gradient centrifugation and were cultured for two days in RPMI 1640 supplemented with 10% heat-inactivated FBS, 2 mM L-glutamine, 100 U/ml of penicillin, and 100 μg/ml of streptomycin, in the presence of indinavir and AZT, to inhibit de novo infection. Productively infected thymocytes, which expressed EYFP, were then removed from the cultures by FACS sorting. Purity of the resulting EYFP-negative cell population was determined by flow cytometric analysis for EYFP and was usually greater than 99.9%. Immediately following the sort, cells were stimulated. HIV-1 reactivation, as indicated by the de novo expression of EYFP was quantified by flow cytometry, acquiring at least 1×10^6 cells per sample in the live gate.
Reactivation of latent HIV-1 infection by anti-CD28 antibodies in human thymocytes derived from SCID-hu (Thy/liv) mice. Whether activating anti-CD28 antibody would also reactivate latent HIV-1 in a system where latency in primary cells was achieved under in vivo conditions was tested. For this purpose, a modification of the HIV-1 established SCID-hu (Thy/Liv) mouse system was used that has been previously used for the study of HIV-1 latency. Brooks et al., Nat. Med. 7:459-464 (2001). SCID-hu (Thy/Liv) mice were infected with HIV-1 NLENY1-IRES to allow for the easy and direct detection of infected cells using flow cytometry. Levy et al., Proc. Nat. Acad. Sci. 101:4204-4209 (2004). […] Levels of infection were determined by flow cytometry for EYFP, and varied in the different animals between 0.5 and 6% of the total thymocyte population. […] The cultures were then subjected to fluorescence activated cell sorting to remove all EYFP positive cells. […]

[2] = test system: latent HIV-1 infection in bulk population of latently infected JLTRG cells; assay: Reactivation of latent HIV-1 in a bulk population of latently infected cells, flow cytometry; format: cell-based; conditions: optimal concentration of each compound, day 57 bulk population, 100,000 viable cells counted
Method: (A) Jurkat cells were infected with an EGFP expressing, replication incompetent reporter virus and the level of productive HIV-1 infection at each indicated time-point was directly assessed by flow cytometric analysis for EGFP expression (untreated; black circles). Levels of initial non-productive and later on latent HIV-1 infection was determined 24 hours following TNF-α stimulation (black squares). The results represent the mean ±S.D. of three independent experiments.
a) Quantification of the HIV-1 reactivating capabilities of test compounds. Following infection, HIV-1 integrates into the cellular genome. Integration is random, although HIV-1 preferentially integrates into euchromatin structures. Latency development can be thus influenced by a multitude of factors that alter gene expression or DNA structure, such as divergent gene expression patterns or the cell cycle stage at the time point of viral integration. Although the reporter cell lines are representative for the majority of latently infected cells and reliably identify most reactivating agents during the screening effort, they can not allow quantification of the capability of the individual compounds to reactivate HIV-1 infection from a diverse population of latently infected cells. To account for the influence that the side of integration of a latent virus can have on a compounds ability to reactivate the virus, a bulk population of latently infected cells (FIG. 7) was established. Following infection of JLTRG cells with HIV-1 NL43, a rapid increase of the level of infection can be observed. On day 3, an average 27% of the cells were productively infected. […] Until day 15, the percentage of productively infected cells rapidly declined to 3% of the overall cell population. At this time point, an additional 5% of the cells were non-productively infected. […] Since 1×10^6 cells were initially infected, and virus mediated inhibition of cell proliferation influences the relative level of infection over time can be excluded, it can be calculated that the latently infected cell population should consist of […] individual latently infected cells. This bulk population of cells allows quantification of the capability of the respective compounds to reactivate latent HIV-1. […] Each compound was titrated over a two-log concentration range to allow for optimal reactivation. The results for the optimal concentration of each compound are depicted in FIG. 7B. […] TNF-α (10 ng/ml) reactivated latent HIV-1 infection in 5% of the cells, whereas the DNA histone deacetylase inhibitors trichostatin A (TSA) and sodium butyrate (NaBu) reactivated latent HIV-1 infection in only 3% or 2.5% of the cells, respectively. To achieve an accurate estimate of the differences in the capability of different agents to reactivate HIV-1 infection it is important to run a sufficiently high number of cells. For this flow cytometry based analysis, 100,000 cells viable per sample were counted.

Molecule	EYFP+ cells [1]	induction of latent HIV-1 expression in thymocytes [1]	cells in which latent HIV-1 infection was reactivated [2] [%]
CCCCCCCCCCCCCC(=O)O[C@@H]1[C@@H](C)[C@@]2(O)[C@@H](C=C(CO)C[C@]3(O)C(=O)C(C)=C[C@@H]23)[C@@H]2C(C)(C)[C@]12OC(C)=O [PMA, 13-phorbol-12-myristate acetate]	260 cells of 1×10^6 cells	2.5-7 fold	7
TNF-α	250 cells of 1×10^6 cells	3-6 fold	5
